Measured values published in patent publication US20250346605A1, “NEW DERIVATIVES FOR TREATING TRPM3 MEDIATED DISORDERS” (Katholieke Universiteit Leuven, priority 2022, published 2025).

Biological target: T1, mouse TRPM3α2 (mTRPM3) ion channel (Mus musculus, UniProt J9SQF3)
T1 construct: expressed in transfected cells; host or cells: Flp-In HEK293
Test: TRPM3 ion channel driven Ca2+ uptake (Fluo-4 AM assay), PS-stimulated overexpressing HEK293 cells
Format: cell-based
Settings: flip-in HEK293 overexpressing TRPM3, stimulated with Pregnenolone sulfate (PS) 50 μM, activity ranges A, B, C
Experimental: In order to monitor the inhibition of the mouse TRPM3α2 (mTRPM3) ion channel by the compounds of the invention, a cellular system making use of an mTRPM3alpha2 or hTRPM3 overexpressing cell line (flip-in HEK293) was used. The TRPM3 channel was stimulated/opened with Pregnenolone sulfate (PS) (50 μM) which results in Ca^2+ influx.
For mTRPM3, the intracellular Ca^2+ was measured with a Calcium responsive dye, Fluor-4 AMV ester (Invitrogen). Cells were cultured until a confluence of 80-90%, washed with Versene (Invitrogen) and detached from the surface by a short incubation with 0.05% Trypsin (Invitrogen). The trypsination process was stopped by the addition of complete cell culture medium (DMEM, glutamax, 10% FCS, NEAA, Pen-Strep). Cells were collected and resuspended in Krebs buffer without Calcium at RT.
Prior the cell seeding (±2000 cells/well into a black, 384 well plate (Greiner)) the diluted compound was added in the assay plate, together with the PS dissolved in Krebs buffer containing Calcium. […] Directly after cell addition the plates were read on an Envision fluorescence reader (Perkin Elmer) by an Excitation of 485 nm and emission at 535 nm.
Channel inhibition was calculated compared to a non-PS stimulated control versus a condition stimulated with PS (50 μM) with vehicle. The ability of the compounds of the invention to inhibit this activity was determined as: Percentage inhibition=[1-((RFU determined for sample with test compound present−RFU determined for sample with positive control inhibitor) divided by (RFU determined in the presence of vehicle−RFU determined for sample with positive control inhibitor))]*100.
The activities of the Example compounds tested are depicted in the table below. The activity ranges A, B and C refer to IC50 values in the Fluo-4 AM assay as follows: “A”: IC50<1 μM; “B”: 1 μM≤IC50≤20 μM and “C”: IC50>20 μM

T1 sequence (J9SQF3 1-1709 isoform J9SQF3-12): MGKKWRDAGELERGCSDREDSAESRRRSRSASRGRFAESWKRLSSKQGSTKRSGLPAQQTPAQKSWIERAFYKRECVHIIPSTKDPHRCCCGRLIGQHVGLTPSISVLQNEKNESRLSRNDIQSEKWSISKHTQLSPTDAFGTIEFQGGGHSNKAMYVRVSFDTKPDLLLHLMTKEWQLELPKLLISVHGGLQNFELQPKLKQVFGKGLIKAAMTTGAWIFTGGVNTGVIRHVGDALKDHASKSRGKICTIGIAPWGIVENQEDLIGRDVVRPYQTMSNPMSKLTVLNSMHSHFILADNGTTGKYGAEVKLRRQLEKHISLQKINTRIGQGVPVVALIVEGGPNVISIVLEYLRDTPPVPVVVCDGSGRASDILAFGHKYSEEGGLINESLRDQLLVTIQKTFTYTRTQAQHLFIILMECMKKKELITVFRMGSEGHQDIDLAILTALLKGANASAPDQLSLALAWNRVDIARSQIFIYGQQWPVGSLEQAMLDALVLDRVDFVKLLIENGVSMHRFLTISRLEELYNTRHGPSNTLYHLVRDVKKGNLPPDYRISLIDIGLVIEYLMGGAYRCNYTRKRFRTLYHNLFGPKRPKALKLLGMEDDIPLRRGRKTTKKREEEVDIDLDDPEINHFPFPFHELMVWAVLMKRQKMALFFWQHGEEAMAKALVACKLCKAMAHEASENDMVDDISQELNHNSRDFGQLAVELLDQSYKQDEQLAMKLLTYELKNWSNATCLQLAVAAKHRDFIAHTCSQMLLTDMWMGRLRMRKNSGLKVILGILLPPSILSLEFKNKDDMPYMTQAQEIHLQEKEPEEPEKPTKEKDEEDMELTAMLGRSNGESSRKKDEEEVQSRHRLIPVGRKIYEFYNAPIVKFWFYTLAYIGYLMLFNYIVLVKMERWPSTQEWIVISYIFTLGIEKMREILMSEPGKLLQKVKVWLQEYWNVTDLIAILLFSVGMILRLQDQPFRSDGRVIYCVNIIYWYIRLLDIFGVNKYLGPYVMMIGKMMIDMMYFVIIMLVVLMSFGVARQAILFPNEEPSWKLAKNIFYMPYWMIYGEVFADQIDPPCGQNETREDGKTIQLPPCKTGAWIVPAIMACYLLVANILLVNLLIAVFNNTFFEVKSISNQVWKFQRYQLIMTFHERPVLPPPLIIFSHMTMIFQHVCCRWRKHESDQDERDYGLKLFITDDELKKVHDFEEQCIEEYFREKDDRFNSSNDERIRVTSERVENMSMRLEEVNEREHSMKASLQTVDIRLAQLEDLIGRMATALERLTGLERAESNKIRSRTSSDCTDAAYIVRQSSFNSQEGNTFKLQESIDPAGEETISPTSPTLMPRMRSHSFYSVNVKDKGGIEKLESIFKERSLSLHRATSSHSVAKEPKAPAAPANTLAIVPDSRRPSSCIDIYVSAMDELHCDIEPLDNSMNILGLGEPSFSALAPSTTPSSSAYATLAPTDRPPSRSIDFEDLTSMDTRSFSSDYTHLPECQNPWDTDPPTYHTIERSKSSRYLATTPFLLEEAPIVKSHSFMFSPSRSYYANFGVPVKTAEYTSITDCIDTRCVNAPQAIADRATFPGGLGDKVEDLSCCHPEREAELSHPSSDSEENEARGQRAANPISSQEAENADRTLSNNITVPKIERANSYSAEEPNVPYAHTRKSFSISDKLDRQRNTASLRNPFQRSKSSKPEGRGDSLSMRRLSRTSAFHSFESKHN

SMILES	IC50 [µM]
Cc1oc2cnc(OCc3ccccc3F)cc2c1C(=O)NC(CO)C(N)=O (single isomer, unassigned) [Cpd 008-En2, 2-({5-[(2-fluorophenyl)methoxy]-2-methylfuro[2,3-c]pyridin-3-yl}formamido)-3-hydroxypropanamide]	< 1
Cc1oc2cnc(OCc3ccccc3F)cc2c1C(=O)N[C@H](C(N)=O)[C@@H](C)O [Cpd 002, (2S,3R)-2-({5-[(2-fluorophenyl)methoxy]-2-methylfuro[2,3-c]pyridin-3-yl}formamido)-3-hydroxybutanamide]	< 1
COc1ncccc1COc1cc2c(C(=O)NC3(CO)CC3)c(C)oc2cn1 [Cpd 032, N-[1-(hydroxymethyl)cyclopropyl]-5-[(2-methoxypyridin-3-yl)methoxy]-2-methylfuro[2,3-c]pyridine-3-carboxamide]	> 20
Cc1oc2cnc(OCc3cccnc3C(F)(F)F)cc2c1C(=O)N[C@@H]1CCNCC1(F)F [Cpd 025, N-[(4R)-3,3-difluoropiperidin-4-yl]-2-methyl-5-{[2-(trifluoromethyl)pyridin-3-yl]methoxy}furo[2,3-c]pyridine-3-carboxamide]	< 1
Cc1oc2cnc(OCc3ccccn3)cc2c1C(=O)NC1(CO)CC1 [Cpd 031, N-[1-(hydroxymethyl)cyclopropyl]-2-methyl-5-[(pyridin-2-yl)methoxy]furo[2,3-c]pyridine-3-carboxamide]	> 20
Cc1ncsc1COc1cc2c(C(=O)N[C@H](C(N)=O)[C@@H](C)O)c(C)oc2cn1 [Cpd 004, (2S,3R)-3-hydroxy-2-({2-methyl-5-[(4-methyl-1,3-thiazol-5-yl)methoxy]furo[2,3-c]pyridin-3-yl}formamido)butanamide]	< 1
Cc1oc2cnc(OCc3ccccc3)cc2c1C(=O)NC1CNCC1(F)F (single isomer, unassigned) [Cpd 015-En2, 5-(benzyloxy)-N-(4,4-difluoropyrrolidin-3-yl)-2-methylfuro[2,3-c]pyridine-3-carboxamide]	< 1
Cc1oc2cnc(OCc3ccccc3)cc2c1C(=O)NC(C)C(N)=O (stereo not shown) [Cpd 010-Enl, 2-{[5-(benzyloxy)-2-methylfuro[2,3-c]pyridin-3-yl]formamido}propanamide]	1 to 20
Cc1oc2cnc(OCc3ccccn3)cc2c1C(=O)NC(CO)C(N)=O (single isomer, unassigned) [Cpd 014-En1, 3-hydroxy-2-({2-methyl-5-[(pyridin-2-yl)methoxy]furo[2,3-c]pyridin-3-yl}formamido)propanamide]	1 to 20
Cc1oc2cnc(OCc3ccccn3)cc2c1C(=O)NC1(C(N)=O)COC1 [Cpd 020, N-(3-carbamoyloxetan-3-yl)-2-methyl-5-[(pyridin-2-yl)methoxy]furo[2,3-c]pyridine-3-carboxamide]	1 to 20
Cc1ncsc1CCOc1cc2c(C(=O)NC3CNCC3(F)F)c(C)oc2cn1 (stereo not shown) [Cpd 023-En1, N-(4,4-difluoropyrrolidin-3-yl)-2-methyl-5-[2-(4-methyl-1,3-thiazol-5-yl)ethoxy]furo[2,3-c]pyridine-3-carboxamide]	1 to 20
Cc1oc2cnc(OCc3ccccc3)cc2c1C(=O)NC1(CO)CCOCC1 [Cpd 016, 5-(benzyloxy)-N-[4-(hydroxymethyl)oxan-4-yl]-2-methylfuro[2,3-c]pyridine-3-carboxamide]	> 20
Cc1oc2cnc(OCc3ccccc3F)cc2c1C(=O)NC(C)(C)C(N)=O [Cpd 007, 2-({5-[(2-fluorophenyl)methoxy]-2-methylfuro[2,3-c]pyridin-3-yl}formamido)-2-methylpropanamide]	1 to 20

Continued, values first:

IC50 [µM]	SMILES
1 to 20	Cc1oc2cnc(OCc3ccccc3F)cc2c1C(=O)NC(C)C(N)=O (single isomer, unassigned) [Cpd 009-En1, 2-({5-[(2-fluorophenyl)methoxy]-2-methylfuro[2,3-c]pyridin-3-yl}formamido)propanamide]
> 20	Cc1oc2cnc(OCc3ccccc3)cc2c1C(=O)NC1CNCC1(F)F (single isomer, unassigned) [Cpd 015-En1, 5-(benzyloxy)-N-(4,4-difluoropyrrolidin-3-yl)-2-methylfuro[2,3-c]pyridine-3-carboxamide]
1 to 20	Cc1oc2cnc(OCc3ccccn3)cc2c1C(=O)NC(C)C(N)=O (single isomer, unassigned) [Cpd 006 _ En2, 2-({2-methyl-5-[(pyridin-2-yl)methoxy]furo[2,3-c]pyridin-3-yl}formamido)propanamide]
> 20	Cc1ncsc1COc1cc2c(C(=O)NC3(C(N)=O)COC3)c(C)oc2cn1 [Cpd 019, N-(3-carbamoyloxetan-3-yl)-2-methyl-5-[(4-methyl-1,3-thiazol-5-yl)methoxy]furo[2,3-c]pyridine-3-carboxamide]
1 to 20	Cc1oc2cnc(OCc3ccccc3F)cc2c1C(=O)NC1(CO)CC1 [Cpd 018, 5-[(2-fluorophenyl)methoxy]-N-[1-(hydroxymethyl)cyclopropyl]-2-methylfuro[2,3-c]pyridine-3-carboxamide]
1 to 20	Cc1oc2cnc(OCc3ccccn3)cc2c1C(=O)NC(C)(C)C(N)=O [Cpd 012, 2-methyl-2-({2-methyl-5-[(pyridin-2-yl)methoxy]furo[2,3-c]pyridin-3-yl}formamido)propanamide]
> 20	Cc1ncsc1COc1cc2c(C(=O)NC3CNCC3(F)F)c(C)oc2cn1 (single isomer, unassigned) [Cpd 021-En2, N-(4,4-difluoropyrrolidin-3-yl)-2-methyl-5-[(4-methyl-1,3-thiazol-5-yl)methoxy]furo[2,3-c]pyridine-3-carboxamide]
1 to 20	Cc1oc2cnc(OCc3ccccn3)cc2c1C(=O)NC1(C(N)=O)CCOCC1 [Cpd 024, N-(4-carbamoyloxan-4-yl)-2-methyl-5-[(pyridin-2-yl)methoxy]furo[2,3-c]pyridine-3-carboxamide]
> 20	Cc1ncsc1COc1cc2c(C(=O)NC3(CO)CC3)c(C)oc2cn1 [Cpd 030, N-[1-(hydroxymethyl)cyclopropyl]-2-methyl-5-[(4-methyl-1,3-thiazol-5-yl)methoxy]furo[2,3-c]pyridine-3-carboxamide]
1 to 20	Cc1ncc(COc2cc3c(C(=O)N[C@@H](CO)C(N)=O)c(C)oc3cn2)s1 [Cpd 001, (2S)-3-hydroxy-2-({2-methyl-5-[(2-methyl-1,3-thiazol-5-yl)methoxy]furo[2,3-c]pyridin-3-yl}formamido)propanamide]
1 to 20	Cc1ncsc1COc1cc2c(C(=O)NC3(CO)CCC3)c(C)oc2cn1 [Cpd 028, N-[1-(hydroxymethyl)cyclobutyl]-2-methyl-5-[(4-methyl-1,3-thiazol-5-yl)methoxy]furo[2,3-c]pyridine-3-carboxamide]
> 20	Cc1oc2cnc(OCc3ccccn3)cc2c1C(=O)NC1(CO)COC1 [Cpd 034, N-[3-(hydroxymethyl)oxetan-3-yl]-2-methyl-5-[(pyridin-2-yl)methoxy]furo[2,3-c]pyridine-3-carboxamide]
1 to 20	Cc1oc2cnc(OCc3ccccc3F)cc2c1C(=O)NC(C)C(N)=O (single isomer, unassigned) [Cpd 009-En2, 2-({5-[(2-fluorophenyl)methoxy]-2-methylfuro[2,3-c]pyridin-3-yl}formamido)propanamide]
< 1	Cc1ncsc1COc1cc2c(C(=O)NC(CO)C(N)=O)c(C)oc2cn1 (single isomer, unassigned) [Cpd 013-En2, 3-hydroxy-2-({2-methyl-5-[(4-methyl-1,3-thiazol-5-yl)methoxy]furo[2,3-c]pyridin-3-yl}formamido)propanamide]
1 to 20	Cc1oc2cnc(OCc3ccccc3F)cc2c1C(=O)NC1CCN(CCO)C1=O (single isomer, unassigned) [Cpd 017-En1, 5-[(2-fluorophenyl)methoxy]-N-[1-(2-hydroxyethyl)-2-oxopyrrolidin-3-yl]-2-methylfuro[2,3-c]pyridine-3-carboxamide]
1 to 20	Cc1ncc(COc2cc3c(C(=O)N[C@H](C(N)=O)[C@@H](C)O)c(C)oc3cn2)s1 [Cpd 003, (2S,3R)-3-hydroxy-2-({2-methyl-5-[(2-methyl-1,3-thiazol-5-yl)methoxy]furo[2,3-c]pyridin-3-yl}formamido)butanamide]
1 to 20	Cc1oc2cnc(OCc3ccccn3)cc2c1C(=O)NC1(CO)CCC1 [Cpd 029, N-[1-(hydroxymethyl)cyclobutyl]-2-methyl-5-[(pyridin-2-yl)methoxy]furo[2,3-c]pyridine-3-carboxamide]
> 20	Cc1ncsc1COc1cc2c(C(=O)NC(CO)C(N)=O)c(C)oc2cn1 (single isomer, unassigned) [Cpd 013-En1, 3-hydroxy-2-({2-methyl-5-[(4-methyl-1,3-thiazol-5-yl)methoxy]furo[2,3-c]pyridin-3-yl}formamido)propanamide]
